Legend:
Format in all cases: in vivo
canola (Brassica rapa) = assay: Test C pre-/postemergence plant response; details: Preemergence
How it was run: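 Test chemicals in a non-phytotoxic solvent with surfactant were applied preemergence, and some were also applied postemergence to plants 2–18 cm tall (1- to 4-leaf stage). Visual ratings against controls were made after 15–25 days in a controlled environment, on a 0–100 scale where 100 means complete control.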

[1] = tested on: annual bluegrass (Poa annua); assay: Test E pre-/postemergence plant response; details: scale 0 to 100
Text: (§1) Seeds of plant species selected from bermudagrass (Cynodon dactylon), Surinam grass (Brachiaria decumbens), large crabgrass (Digitaria sanguinalis), green foxtail (Setaria viridis), goosegrass (Eleusine indica), johnsongrass (Sorghum halepense), kochia (Kochia scoparia), pitted morningglory (Ipomoea lacunosa), purple nutsedge (Cyperus rotundus), common ragweed (Ambrosia elation), black mustard (Brassica nigra), guineagrass (Panicum maximum), dallisgrass (Paspalum dilatatum), barnyardgrass (Echinochloa crus-galli), southern (S.) sandbur (Cenchrus echinatus), common sowthistle (Sonchus oleraceous), prickly sida (Sida spinosa), Italian ryegrass (Lolium multiflorum), common purslane (Portulaca oleracea), broadleaf signalgrass (Brachiaria platyphylla), common groundsel (Senecio vulgaris), common chickweed (Stellaria media), Virginia (V.) dayflower (Commelina virginica), tropical (T.) spiderwort (Commelina benghalensis), annual bluegrass (Poa annua), naked crabgrass (Digitaria nuda), itchgrass (Rottboellia cochinchinensis), quackgrass (Elytrigia repens), Canada horseweed (Conyza canadensis), field bindweed (Convolvulus arvensis), spanishneedles (Bidens bipinnata), common mallow (Malva sylvestris) and Russian thistle (Salsola kali) were planted and treated preemergence with test chemicals formulated in a non-phytotoxic solvent mixture which included a surfactant. At the same time, plants selected from these weed species were treated with postemergence applications of some of the test chemicals formulated in the same manner. Plants ranged in height from 2 to 18 cm (1- to 4-leaf stage) for postemergence treatments.
(§2) Treated plants and controls were maintained in a greenhouse for 14 to 21 days, after which time all species were compared to controls and visually evaluated. Plant response ratings, summarized in Table E, are based on a scale of 0 to 100 where 0 is no effect and 100 is complete control. A dash (-) response means no test result.

[2] = tested on: barnyardgrass (Echinochloa crus-galli); assay: Test E pre-/postemergence plant response; details: scale 0 to 100
Text: as §1, §2

[3] = tested on: broadleaf signalgrass (Brachiaria platyphylla); assay: Test E pre-/postemergence plant response; details: scale 0 to 100
Text: as §1, §2

[4] = tested on: common groundsel (Senecio vulgaris); assay: Test E pre-/postemergence plant response; details: Postemergence, scale 0 to 100
Text: as §1, §2

[5] = tested on: common mallow (Malva sylvestris); assay: Test E pre-/postemergence plant response; details: scale 0 to 100
Text: as §1, §2

[6] = tested on: guineagrass (Panicum maximum); assay: Test E pre-/postemergence plant response; details: scale 0 to 100
Text: as §1, §2

[7] = tested on: itchgrass (Rottboellia cochinchinensis); assay: Test E pre-/postemergence plant response; details: scale 0 to 100
Text: as §1, §2

[8] = tested on: naked crabgrass (Digitaria nuda); assay: Test E pre-/postemergence plant response; details: scale 0 to 100
Text: as §1, §2

[9] = tested on: pitted morningglory (Ipomoea lacunosa); assay: Test E pre-/postemergence plant response; details: scale 0 to 100
Text: as §1, §2

[10] = tested on: quackgrass (Elytrigia repens); assay: Test E pre-/postemergence plant response; details: scale 0 to 100
Text: as §1, §2

[11] = tested on: surinam grass (Brachiaria decumbens); assay: Test E pre-/postemergence plant response; details: scale 0 to 100
Text: as §1, §2

COC(=O)Oc1cnn(C)c(=O)c1-n1nc(-c2ccc(Cl)cc2)cc1C [Compound 33]
90: Plant response rating, Guineagrass ([6]; Postemergence, 31 g ai/ha) | Plant response rating, Crabgrass, Naked ([8]; Postemergence, 16 g ai/ha) | Plant response rating, Crabgrass, Naked ([8]; Postemergence, 31 g ai/ha)
70: Plant response rating, Itchgrass ([7]; Postemergence, 31 g ai/ha) | Plant response rating, Quackgrass ([10]; Postemergence, 62 g ai/ha)
80: Plant response rating, Barnyardgrass ([2]; 16 g ai/ha, Preemergence) | Plant response rating, Guineagrass ([6]; Postemergence, 8 g ai/ha) | Plant response rating, Guineagrass ([6]; Postemergence, 16 g ai/ha) | Plant response rating, Itchgrass ([7]; 31 g ai/ha, Preemergence) | Plant response rating, Itchgrass ([7]; 62 g ai/ha, Preemergence)
100: Plant response rating, Barnyardgrass ([2]; 31 g ai/ha, Preemergence) | Plant response rating, Barnyardgrass ([2]; 62 g ai/ha, Preemergence) | Plant response rating, Barnyardgrass ([2]; Postemergence, 16 g ai/ha) | Plant response rating, Barnyardgrass ([2]; Postemergence, 31 g ai/ha) | Plant response rating, Barnyardgrass ([2]; Postemergence, 62 g ai/ha) | Plant response rating, Signalgrass ([3]; 62 g ai/ha, Preemergence) | Plant response rating, Signalgrass ([3]; Postemergence, 62 g ai/ha) | Plant response rating, Guineagrass ([6]; 16 g ai/ha, Preemergence) | Plant response rating, Guineagrass ([6]; 31 g ai/ha, Preemergence) | Plant response rating, Guineagrass ([6]; 62 g ai/ha, Preemergence) | Plant response rating, Crabgrass, Naked ([8]; 31 g ai/ha, Preemergence) | Plant response rating, Crabgrass, Naked ([8]; 62 g ai/ha, Preemergence) | Plant response rating, Surinam Grass ([11]; 62 g ai/ha, Preemergence) | Plant response rating, Surinam Grass ([11]; Postemergence, 31 g ai/ha) | Plant response rating, Surinam Grass ([11]; Postemergence, 62 g ai/ha)
98: Plant response rating, Signalgrass ([3]; 31 g ai/ha, Preemergence) | Plant response rating, Crabgrass, Naked ([8]; Postemergence, 62 g ai/ha) | Plant response rating, Surinam Grass ([11]; 16 g ai/ha, Preemergence) | Plant response rating, Surinam Grass ([11]; 31 g ai/ha, Preemergence)
40: Plant response rating, Itchgrass ([7]; Postemergence, 8 g ai/ha)
95: Plant response rating, Barnyardgrass ([2]; Postemergence, 8 g ai/ha) | Plant response rating, Signalgrass ([3]; Postemergence, 31 g ai/ha) | Plant response rating, Guineagrass ([6]; Postemergence, 62 g ai/ha) | Plant response rating, Crabgrass, Naked ([8]; 16 g ai/ha, Preemergence)
5: Plant response rating, Bluegrass ([1]; Postemergence, 31 g ai/ha) | Plant response rating, Bluegrass ([1]; Postemergence, 62 g ai/ha)
75: Plant response rating, Signalgrass ([3]; 16 g ai/ha, Preemergence) | Plant response rating, Signalgrass ([3]; Postemergence, 8 g ai/ha) | Plant response rating, Signalgrass ([3]; Postemergence, 16 g ai/ha) | Plant response rating, Itchgrass ([7]; Postemergence, 62 g ai/ha) | Plant response rating, Crabgrass, Naked ([8]; 8 g ai/ha, Preemergence) | Plant response rating, Crabgrass, Naked ([8]; Postemergence, 8 g ai/ha) | Plant response rating, Surinam Grass ([11]; Postemergence, 8 g ai/ha) | Plant response rating, Surinam Grass ([11]; Postemergence, 16 g ai/ha)
60: Plant response rating, Itchgrass ([7]; 16 g ai/ha, Preemergence) | Plant response rating, Quackgrass ([10]; 62 g ai/ha, Preemergence) | Plant response rating, Quackgrass ([10]; Postemergence, 31 g ai/ha)
20: Plant response rating, Quackgrass ([10]; 16 g ai/ha, Preemergence) | Plant response rating, Quackgrass ([10]; 31 g ai/ha, Preemergence)
65: Plant response rating, Barnyardgrass ([2]; 8 g ai/ha, Preemergence) | Plant response rating, Itchgrass ([7]; Postemergence, 16 g ai/ha)
30: Plant response rating, Quackgrass ([10]; Postemergence, 16 g ai/ha)
0: Plant response rating, Canola (canola (Brassica rapa); 8 g ai/ha, scale 0 to 100 (0 no effect, 100 complete control)) | Plant response rating, Canola (canola (Brassica rapa); 16 g ai/ha, scale 0 to 100 (0 no effect, 100 complete control)) | Plant response rating, Canola (canola (Brassica rapa); 31 g ai/ha, scale 0 to 100 (0 no effect, 100 complete control)) | Plant response rating, Canola (canola (Brassica rapa); 62 g ai/ha, scale 0 to 100, 0 no effect, 100 complete control) | Plant response rating, Bluegrass ([1]; 8 g ai/ha, Preemergence) | Plant response rating, Bluegrass ([1]; 16 g ai/ha, Preemergence) | Plant response rating, Bluegrass ([1]; 31 g ai/ha, Preemergence) | Plant response rating, Bluegrass ([1]; 62 g ai/ha, Preemergence) | Plant response rating, Bluegrass ([1]; Postemergence, 8 g ai/ha) | Plant response rating, Bluegrass ([1]; Postemergence, 16 g ai/ha) | Plant response rating, Groundsel ([4]; 8 g ai/ha) | Plant response rating, Groundsel ([4]; 16 g ai/ha) | Plant response rating, Groundsel ([4]; 31 g ai/ha) | Plant response rating, Groundsel ([4]; 62 g ai/ha) | Plant response rating, Mallow ([5]; 16 g ai/ha, Preemergence) | Plant response rating, Mallow ([5]; 31 g ai/ha, Preemergence) | Plant response rating, Mallow ([5]; 62 g ai/ha, Preemergence) | Plant response rating, Mallow ([5]; Postemergence, 8 g ai/ha) | Plant response rating, Mallow ([5]; Postemergence, 16 g ai/ha) | Plant response rating, Mallow ([5]; Postemergence, 31 g ai/ha) | Plant response rating, Mallow ([5]; Postemergence, 62 g ai/ha) | Plant response rating, Morningglory ([9]; 16 g ai/ha, Preemergence) | Plant response rating, Morningglory ([9]; 31 g ai/ha, Preemergence) | Plant response rating, Morningglory ([9]; 62 g ai/ha, Preemergence) | Plant response rating, Morningglory ([9]; Postemergence, 8 g ai/ha) | Plant response rating, Morningglory ([9]; Postemergence, 16 g ai/ha) | Plant response rating, Morningglory ([9]; Postemergence, 31 g ai/ha) | Plant response rating, Morningglory ([9]; Postemergence, 62 g ai/ha) | Plant response rating, Quackgrass ([10]; Postemergence, 8 g ai/ha)

From patent publication US20100267561A1, “HERBICIDAL PYRIDAZINONE DERIVATIVES” (priority 2007, published 2010)
